Assay results as given in patent US11471387B2, “Oral cavity care method and oral cavity care system” (priority 2017, dated 2022).

Assays:
[1] = tested on: tissue cells (FIGS. 6B, 6D); experiment: Safety test, survival rate of tissue cells (FIGS. 6B and 6D)
[2] = tested on: tissue cells (FIGS. 6A, 6C); experiment: Safety test, survival rate of tissue cells (FIGS. 6A and 6C)

## [H]/N=C(\N/C(=N/[H])NCCCCCCNC(=N)NC(=N)Nc1ccc(Cl)cc1)Nc1ccc(Cl)cc1 [chlorhexidine]
[1]; FIG. 6B
  50% survival rate of tissue cells (time): 8.4 h
[1]; tissue cells of FIGS. 6B/6D
  cytotoxicity with time: cytotoxic with time
[2]; FIG. 6A
  50% survival rate of tissue cells (time): 10.8 h
[2]; tissue cells of FIGS. 6A/6C
  cytotoxicity with time: cytotoxic with time
